In patent US20260215428A1, “WEED CONTROL METHOD” (SYNGENTA CROP PROTECTION AG, priority 2023, published 2026):

Assays:
Type in all cases: in vivo
Echinochloa Crus-galli = assay: Further glasshouse test versus other ACCase-inhibiting herbicides, Table B2-5; conditions: 21 days after application
From the text: (§1) Further tests were employed to test the efficacy of a compound of Formula I versus other ACCase-inhibiting herbicides. The five main targets were Lolium multiflorum, Eleusine indica, Digitaria insularis, Sorghum halepense and Echinochloa crus-galli. Collectively, the populations contained all the major target-site resistance mutations affecting ACCase herbicides. Two L. multiflorum (LM-NTSR-1 and LM-NTSR-2) and one E. crus-galli (ECG-NTSR-1) populations were characterised exclusively by non-target-site resistance (“NTSR”). The target-site resistant L. multiflorum and E. indication populations were 100% homozygous for different ACCase mutations whilst the D. insularis, S. halepense and E. crus-galli samples contained a mixture of homozygous wild and mutant individuals at different genotypic frequencies. Additional underlying NTSR cannot be ruled out in the populations characterised by target-site resistance.
(§2) Around 50 seeds of each of the 24 weed populations were sown in 12-cm pots containing a mixture of peat and compost in a 1:1 ratio. The pots were watered, fertilised and kept in controlled glasshouse conditions set at 24° C./16 hr day, 18° C. night, 65% relative humidity, and a photon flux density of approximately 250 μmol quanta m^−2 s^−1 for Lolium multiflorum. The E. indica, D. insularis, S. halepense and E. crus-galli plants were kept in a separate glasshouse bay characterised by a 17 H photoperiod of 180 μmol m^−2 s^−1 with temperatures of 25° C. day and 19° C. night and 65% relative humidity. When the plants were at the two to four-leaf stage, they were treated with the various ACCase-inhibiting herbicides at 0, 15, 30, 60, 120 and 240 g ai ha^−1 in a spray cabinet mounted with a single mobile Teejet flat fan nozzle (11002VS) calibrated to deliver 200 L ha^−1 at 200 kPa. The L. multiflorum populations were treated by a compound of Formula Ic, clodinafop-propargyl, pinoxaden, cycloxydim and clethodim and the warm season grass weeds E. indica, D. insularis, S. halepense and E. crus-galli were sprayed with a Compound Ic and the commonly employed haloxyfop-methyl and clethodim. Three replicate pots were used per population. Plants were assessed for visual damage compared to the untreated control 21 days after application (0=0% damage; 100=100% damage).

Lolium multiflorum = assay: Further glasshouse test versus other ACCase-inhibiting herbicides, Table B2-1; conditions: 21 days after application
From the text: as §1, §2

Digitaria insularis = assay: Further glasshouse test versus other ACCase-inhibiting herbicides, Table B2-3; conditions: 21 days after application
From the text: as §1, §2

Volunteer corn = assay: 26 field trials, control of volunteer corn, Table B1-6; conditions: 100 g/ha
Eleusine indica = assay: Glasshouse post-emergence test, visual damage, Tables B1-2 and B1-3; conditions: 14 days after application
Procedure: Seeds of a variety of test species are sown in standard soil in pots. For each treatment, three replicate pots containing 10-15 plants per one-inch pot were sprayed at the 2-3 leaf stage. […] The test plants are then grown in a glasshouse under controlled conditions in a glasshouse (at 24/16° C., day/night; 14 hours light; 65% humidity) and watered twice daily. Plants were assessed for visual damage compared to the untreated control 14 days after application (0=0% damage; 100=100% damage).

CCSC(C)CC1CC(=O)C(/C(CC)=N/OC/C=C/Cl)=C(O)C1 (stereo not shown) [Clethodim, clethodim]
visual damage (Echinochloa Crus-galli; biotype Sensitive, 15 g/ha): 100%
visual damage (Echinochloa Crus-galli; biotype Sensitive, 30 g/ha): 100%
visual damage (Echinochloa Crus-galli; biotype Sensitive, 60 g/ha): 100%
visual damage (Echinochloa Crus-galli; biotype Sensitive, 120 g/ha): 100%
visual damage (Echinochloa Crus-galli; biotype Sensitive, 240 g/ha): 100%
visual damage (Echinochloa Crus-galli; biotype W2027C, 15 g/ha): 83%
visual damage (Echinochloa Crus-galli; biotype W2027C, 30 g/ha): 100%
visual damage (Echinochloa Crus-galli; biotype W2027C, 60 g/ha): 100%
visual damage (Echinochloa Crus-galli; biotype W2027C, 120 g/ha): 100%
visual damage (Echinochloa Crus-galli; biotype W2027C, 240 g/ha): 100%
visual damage (Echinochloa Crus-galli; population ECG-NTSR-1 (non-target-site resistance), 15 g/ha): 95%
visual damage (Echinochloa Crus-galli; population ECG-NTSR-1 (non-target-site resistance), 30 g/ha): 98%
visual damage (Echinochloa Crus-galli; population ECG-NTSR-1 (non-target-site resistance), 60 g/ha): 100%
visual damage (Echinochloa Crus-galli; population ECG-NTSR-1 (non-target-site resistance), 120 g/ha): 100%
visual damage (Echinochloa Crus-galli; population ECG-NTSR-1 (non-target-site resistance), 240 g/ha): 100%
visual damage (Lolium multiflorum; biotype C2088R, 15 g/ha): 0%
visual damage (Lolium multiflorum; biotype C2088R, 30 g/ha): 13%
visual damage (Lolium multiflorum; biotype C2088R, 60 g/ha): 40%
visual damage (Lolium multiflorum; biotype C2088R, 120 g/ha): 90%
visual damage (Lolium multiflorum; biotype C2088R, 240 g/ha): 100%
visual damage (Lolium multiflorum; biotype D2078G, 15 g/ha): 10%
visual damage (Lolium multiflorum; biotype D2078G, 30 g/ha): 17%
visual damage (Lolium multiflorum; biotype D2078G, 60 g/ha): 27%
visual damage (Lolium multiflorum; biotype D2078G, 120 g/ha): 70%
visual damage (Lolium multiflorum; biotype D2078G, 240 g/ha): 100%
visual damage (Lolium multiflorum; biotype I1781L, 15 g/ha): 23%
visual damage (Lolium multiflorum; biotype I1781L, 30 g/ha): 53%
visual damage (Lolium multiflorum; biotype I1781L, 60 g/ha): 70%
visual damage (Lolium multiflorum; biotype I1781L, 120 g/ha): 100%
visual damage (Lolium multiflorum; biotype I1781L, 240 g/ha): 100%
visual damage (Lolium multiflorum; biotype Sensitive, 15 g/ha): 100%
visual damage (Lolium multiflorum; biotype Sensitive, 30 g/ha): 100%
visual damage (Lolium multiflorum; biotype Sensitive, 60 g/ha): 100%
visual damage (Lolium multiflorum; biotype Sensitive, 120 g/ha): 100%
visual damage (Lolium multiflorum; biotype Sensitive, 240 g/ha): 100%
visual damage (Lolium multiflorum; biotype W1999S, 15 g/ha): 27%
visual damage (Lolium multiflorum; biotype W1999S, 30 g/ha): 98%
visual damage (Lolium multiflorum; biotype W1999S, 60 g/ha): 100%
visual damage (Lolium multiflorum; biotype W1999S, 120 g/ha): 100%
visual damage (Lolium multiflorum; biotype W1999S, 240 g/ha): 100%
visual damage (Lolium multiflorum; biotype W2027C, 15 g/ha): 63%
visual damage (Lolium multiflorum; biotype W2027C, 30 g/ha): 100%
visual damage (Lolium multiflorum; biotype W2027C, 60 g/ha): 100%
visual damage (Lolium multiflorum; biotype W2027C, 120 g/ha): 100%
visual damage (Lolium multiflorum; biotype W2027C, 240 g/ha): 100%
visual damage (Lolium multiflorum; population LM-NTSR-1 (non-target-site resistance), 15 g/ha): 63%
visual damage (Lolium multiflorum; population LM-NTSR-1 (non-target-site resistance), 30 g/ha): 97%
visual damage (Lolium multiflorum; population LM-NTSR-1 (non-target-site resistance), 60 g/ha): 100%
visual damage (Lolium multiflorum; population LM-NTSR-1 (non-target-site resistance), 120 g/ha): 100%
visual damage (Lolium multiflorum; population LM-NTSR-1 (non-target-site resistance), 240 g/ha): 100%
visual damage (Lolium multiflorum; population LM-NTSR-2 (non-target-site resistance), 15 g/ha): 3%
visual damage (Lolium multiflorum; population LM-NTSR-2 (non-target-site resistance), 30 g/ha): 55%
visual damage (Lolium multiflorum; population LM-NTSR-2 (non-target-site resistance), 60 g/ha): 70%
visual damage (Lolium multiflorum; population LM-NTSR-2 (non-target-site resistance), 120 g/ha): 75%
visual damage (Lolium multiflorum; population LM-NTSR-2 (non-target-site resistance), 240 g/ha): 95%
visual damage (Digitaria insularis; biotype Sensitive, 15 g/ha): 100%
visual damage (Digitaria insularis; biotype Sensitive, 30 g/ha): 100%
visual damage (Digitaria insularis; biotype Sensitive, 60 g/ha): 100%
visual damage (Digitaria insularis; biotype Sensitive, 120 g/ha): 100%
visual damage (Digitaria insularis; biotype Sensitive, 240 g/ha): 100%
visual damage (Digitaria insularis; biotype W2027C, 15 g/ha): 78%
visual damage (Digitaria insularis; biotype W2027C, 30 g/ha): 100%
visual damage (Digitaria insularis; biotype W2027C, 60 g/ha): 100%
visual damage (Digitaria insularis; biotype W2027C, 120 g/ha): 100%
visual damage (Digitaria insularis; biotype W2027C, 240 g/ha): 100%
Control (14d) (Volunteer corn; 14d): 90%
Control (28d) (Volunteer corn; 28d): 96%
visual damage (Eleusine indica; Table B1-2, biotype 87% I1781L (heterozygous), 15 g/ha): 80%
visual damage (Eleusine indica; Table B1-2, biotype 87% I1781L (heterozygous), 30 g/ha): 77%
visual damage (Eleusine indica; Table B1-2, biotype 87% I1781L (heterozygous), 60 g/ha): 100%
visual damage (Eleusine indica; Table B1-2, biotype 87% I1781L (heterozygous), 120 g/ha): 100%
visual damage (Eleusine indica; Table B1-2, biotype D2078G + W2027C (heterozygous), first entry, 15 g/ha): 50%
visual damage (Eleusine indica; Table B1-2, biotype D2078G + W2027C (heterozygous), first entry, 30 g/ha): 60%
visual damage (Eleusine indica; Table B1-2, biotype D2078G + W2027C (heterozygous), first entry, 60 g/ha): 70%
visual damage (Eleusine indica; Table B1-2, biotype D2078G + W2027C (heterozygous), first entry, 120 g/ha): 80%
visual damage (Eleusine indica; Table B1-2, biotype D2078G + W2027C (heterozygous), second entry, 15 g/ha): 63%
visual damage (Eleusine indica; Table B1-2, biotype D2078G + W2027C (heterozygous), second entry, 30 g/ha): 67%
visual damage (Eleusine indica; Table B1-2, biotype D2078G + W2027C (heterozygous), second entry, 60 g/ha): 93%
visual damage (Eleusine indica; Table B1-2, biotype D2078G + W2027C (heterozygous), second entry, 120 g/ha): 100%
visual damage (Eleusine indica; Table B1-2, biotype I2041N (heterozygous), 15 g/ha): 82%
visual damage (Eleusine indica; Table B1-2, biotype I2041N (heterozygous), 30 g/ha): 100%
visual damage (Eleusine indica; Table B1-2, biotype I2041N (heterozygous), 60 g/ha): 100%
visual damage (Eleusine indica; Table B1-2, biotype I2041N (heterozygous), 120 g/ha): 100%
visual damage (Eleusine indica; Table B1-2, biotype NTSR (non-target site resistance), 1 g/ha): 0%
visual damage (Eleusine indica; Table B1-2, biotype NTSR (non-target site resistance), 2 g/ha): 33%
visual damage (Eleusine indica; Table B1-2, biotype NTSR (non-target site resistance), 4 g/ha): 43%
visual damage (Eleusine indica; Table B1-2, biotype NTSR (non-target site resistance), 8 g/ha): 77%
visual damage (Eleusine indica; Table B1-2, biotype Sensitive, 15 g/ha): 87%
visual damage (Eleusine indica; Table B1-2, biotype Sensitive, 30 g/ha): 100%
visual damage (Eleusine indica; Table B1-2, biotype Sensitive, 60 g/ha): 100%
visual damage (Eleusine indica; Table B1-2, biotype Sensitive, 120 g/ha): 100%
visual damage (Eleusine indica; Table B1-3, Pop1 (mix of sensitive, D2078G and G2096A biotypes), 15 g/ha): 10%
visual damage (Eleusine indica; Table B1-3, Pop1 (mix of sensitive, D2078G and G2096A biotypes), 30 g/ha): 33%
visual damage (Eleusine indica; Table B1-3, Pop1 (mix of sensitive, D2078G and G2096A biotypes), 60 g/ha): 47%
visual damage (Eleusine indica; Table B1-3, Pop1 (mix of sensitive, D2078G and G2096A biotypes), 120 g/ha): 63%
visual damage (Eleusine indica; Table B1-3, Pop2 (mix of sensitive, D2078G and G2096A biotypes), 15 g/ha): 10%
visual damage (Eleusine indica; Table B1-3, Pop2 (mix of sensitive, D2078G and G2096A biotypes), 30 g/ha): 33%
visual damage (Eleusine indica; Table B1-3, Pop2 (mix of sensitive, D2078G and G2096A biotypes), 60 g/ha): 76%
visual damage (Eleusine indica; Table B1-3, Pop2 (mix of sensitive, D2078G and G2096A biotypes), 120 g/ha): 77%
visual damage (Eleusine indica; Table B1-3, biotype Sensitive, 15 g/ha): 100%
visual damage (Eleusine indica; Table B1-3, biotype Sensitive, 30 g/ha): 100%
visual damage (Eleusine indica; Table B1-3, biotype Sensitive, 60 g/ha): 100%
visual damage (Eleusine indica; Table B1-3, biotype Sensitive, 120 g/ha): 100%
